Data: PubChem BioAssay (NCI)
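Grown in 96-well plates, cells were treated for 48 hours with each compound at five concentrations. Insufficient inhibition: endpoint recorded as highest concentration tested. TGI: total growth inhibition.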 *1 amine or outer side, *2 acyl side, *3 side chain or, on linkers, in order; H or OH if unused. Where a SMILES comes first, the peptide text is derived from it. [ ]: non-standard residue; d: D form. The star is where a group is joined. X31 = CC(=O)N(C)SCC(N[*:1])C(=O)[*:2]; Cbz = O=C(OCc1ccccc1)*; Bn = c1ccc(C*)cc1; For = O=C*

Experiments:
Assay in all cases: DTP human tumour cell line panel, 48 h
ACHN renal = test system: ACHN renal
NCI/ADR-RES ovarian = test system: NCI/ADR-RES ovarian
RPMI-8226 leukemia = test system: RPMI-8226 leukemia
SF-539 CNS = test system: SF-539 CNS
SN12C renal = test system: SN12C renal
DLD-1 colon = test system: DLD-1 colon
DMS 114 small cell lung = test system: DMS 114 small cell lung
DMS 273 small cell lung = test system: DMS 273 small cell lung
KM20L2 colon = test system: KM20L2 colon
LXFL 529 NSCLC = test system: LXFL 529 NSCLC
RXF-631 renal = test system: RXF-631 renal
SNB-78 CNS = test system: SNB-78 CNS
XF 498 CNS = test system: XF 498 CNS
HOP-18 NSCLC = test system: HOP-18 NSCLC
M19-MEL melanoma = test system: M19-MEL melanoma

SMILES | TGI (ACHN renal) [µM] | TGI (NCI/ADR-RES ovarian) [µM] | TGI (RPMI-8226 leukemia) [µM] | TGI (SF-539 CNS) [µM] | TGI (SN12C renal) [µM] | TGI (DLD-1 colon) [µM] | TGI (DMS 114 small cell lung) [µM] | TGI (DMS 273 small cell lung) [µM] | TGI (KM20L2 colon) [µM] | TGI (LXFL 529 NSCLC) [µM] | TGI (RXF-631 renal) [µM] | TGI (SNB-78 CNS) [µM] | TGI (XF 498 CNS) [µM] | TGI (HOP-18 NSCLC) [µM] | TGI (M19-MEL melanoma) [µM]
CN(C)Nc1cc(=O)[nH]c(=O)[nH]1 | > 100 | > 100 | > 100 | > 100 | > 100 | – | – | – | – | – | – | – | – | – | –
O=c1oc2ccc3ccccc3c2cc1-c1cn2ccccc2n1 | 94.2 | > 100 | > 100 | > 100 | > 100 | – | – | – | – | – | – | – | – | – | –
CC(=O)C(=C(c1ccccc1)c1ccccc1)c1ccccc1 | > 100 | > 100 | > 100 | > 100 | > 100 | – | – | – | – | – | – | – | – | – | –
C=C(C)C1=CCC[C@]2(C1)N=C(OC)[C@@H](C(C)C)N=C2OC | > 100 | > 100 | 47.9 | > 100 | > 100 | – | – | – | – | – | – | – | – | – | –
C=Cc1ccc(C)[n+](C[Si](C)(C)O[Si](C)(C)C)c1 | > 100 | – | > 100 | > 100 | > 100 | > 100 | > 100 | > 100 | > 100 | > 100 | > 100 | > 100 | – | – | –
COC(=O)[C@@H]1CN(C(C)=O)C(=O)N1 | > 100 | > 100 | > 100 | > 100 | > 100 | – | – | – | – | – | – | – | – | – | –
COC1(OC)c2no[n+]([O-])c2CCC1O (stereo not drawn) | > 100 | > 100 | > 100 | > 100 | > 100 | – | – | – | – | – | – | – | – | – | –
CCCCNc1nc(C#N)c(N)s1 | > 100 | – | > 100 | > 100 | > 100 | > 100 | – | > 100 | > 100 | > 100 | > 100 | > 100 | > 100 | – | –
O=C(c1cccs1)N(C(=S)N1CCN(c2ccccn2)CC1)c1ccccc1 | > 100 | – | > 100 | > 100 | > 100 | > 100 | > 100 | > 100 | > 100 | > 100 | – | > 100 | 84 | > 100 | > 100
Cn1c2ccccc2c2c(-c3ccccc3)cc3c(c21)C(=O)C=CC3=O | 3.04 | > 9.15 | 4.8 | 4.29 | 5.76 | – | – | – | – | – | – | – | – | – | –
CC(=O)N(C)SCC(NC(=O)C(Cc1ccccc1)NC(=O)OCc1ccccc1)C(=O)NC(Cc1ccccc1)C(=O)NC(Cc1cn(C=O)c2ccccc12)C(=O)NC(CCCCNC(=O)OCc1ccccc1)C(=O)NC(C(=O)NC(CSN(C)C(C)=O)C(=O)NC(C(N)=O)C(C)OCc1ccccc1)C(C)OCc1ccccc1 (stereo not drawn) (Cbz-F[X31]FW(For)K(Cbz)T(Bn)[X31]T(Bn)-NH2; configuration not given here) | > 100 | > 100 | > 100 | > 100 | > 100 | – | – | – | – | – | – | – | – | – | –
Cc1csc2[n+]1C(=O)/C(=C\c1ccc([N+](=O)[O-])cc1)S2 | 65.7 | 63.6 | > 100 | > 100 | 99.3 | – | – | – | – | – | – | – | – | – | –
O=c1[nH]c2cc([N+](=O)[O-])ccc2nc1/C(=N/Nc1ccccc1)C(O)c1ccccc1Cl (stereo not drawn) | > 100 | – | > 100 | > 100 | > 100 | > 100 | > 100 | > 100 | > 100 | > 100 | – | > 100 | > 100 | – | > 100
CC(=O)OC1COC(n2c(O)c(N=NC(N)=S)c3cc(Br)ccc32)C(OC(C)=O)C1OC(C)=O (stereo not drawn) | > 100 | – | > 100 | > 100 | > 100 | > 100 | > 100 | > 100 | > 100 | > 100 | – | > 100 | > 100 | > 100 | > 100
COC(=O)N/N=C(\Cc1ccccc1)CN(C)C | > 100 | – | > 100 | > 100 | – | > 100 | > 100 | > 100 | > 100 | > 100 | > 100 | > 100 | > 100 | – | > 100
O=C(CSc1nnc(-c2ccc(N=Cc3ccc(Cl)cc3)cc2)o1)Nc1ccccc1[N+](=O)[O-] | > 100 | – | > 100 | – | > 100 | – | > 100 | > 100 | > 100 | > 100 | – | > 100 | > 100 | > 100 | > 100
O=C1C(Cl)C2(CC(/C=C/c3ccccc3Cl)=NN2c2cccc(S(=O)(=O)O)c2)N1c1nc2ccccc2s1 (stereo not drawn) | > 100 | > 100 | 89.9 | 37.6 | > 100 | – | – | – | – | – | – | – | – | – | –
O=C1CCC2C(O)c3cc4c(cc3C(c3ccc5c(c3)OCO5)N12)OCO4 (stereo not drawn) | > 100 | > 100 | > 100 | > 100 | > 100 | – | – | – | – | – | – | – | – | – | –
COC(=O)C1(CCC(C)=O)CCCCCC1=O (stereo not drawn) | > 100 | > 100 | > 100 | > 100 | > 100 | – | – | – | – | – | – | – | – | – | –
Cc1cc2ccccc2n2c1nc1ccccc12 | > 100 | > 100 | > 100 | > 100 | > 100 | – | – | – | – | – | – | – | – | – | –
O=[N+]([O-])/C(C(Cl)=C(Cl)Cl)=C(\N1CCOCC1)n1nnc2ccccc21 | 34.9 | 65.1 | > 100 | 32.8 | 42.9 | – | – | – | – | – | – | – | – | – | –
C/C(=N\NS(=O)(=O)c1ccc(C)cc1)C(CN1CCCCC1)C(c1ccccc1)c1c(O)c2ccccc2oc1=O (stereo not drawn) | > 100 | – | > 100 | > 100 | > 100 | > 100 | – | – | > 100 | > 100 | – | > 100 | > 100 | > 100 | –
O=C(ON=C1c2ccccc2C(Br)C(Br)c2ccccc21)c1cc([N+](=O)[O-])cc([N+](=O)[O-])c1 (stereo not drawn) | 45 | 40.5 | 37 | 32.8 | 35.8 | – | – | – | – | – | – | – | – | – | –
NC(=O)N/N=C(\CC1OC(=O)c2ccccc21)c1ccco1 (stereo not drawn) | > 100 | – | – | > 100 | – | > 100 | > 100 | > 100 | > 100 | > 100 | > 100 | – | – | > 100 | > 100
